From PubChem BioAssay AID2060882 (Molecular Pharmacology Branch, DTP, NCI, 2025)

System: 898857-211-R-J1-PDC complex spheroids, growth % test/control
Assay: Anticancer human tumor 898857-211-R-J1-PDC patient-derived melanoma cell line growth inhibition [RAS]
Conditions: for viability, T/C: stronger effect = lower value; active means viability on the fitted dose curve at most 10% of control; inactive means the rest
Description: RAS pathway inhibitors in Combinations in Complex Spheroids
A high-throughput screen of multi-cell type tumor spheroids was designed to identify active combinations of RAS pathway inhibitors and targeted small molecules. Complex spheroids include a stromal component modeled by human endothelial cells (HUVEC) and fibroblasts modeled by human mesenchymal stem cells (MSCs). The concentration ranges selected for each drug and investigational agent were based upon clinically achievable concentrations if the clinical Cmax of the agent was known.
Compounds. The drugs and investigational agents: abemaciclib (NSC768073), cobimetinib (NSC768068), divarasib (GDC6063, NSC841802), docetaxel (NSC628503), GDC-1971 (RLY-1971, NSC841576), gemcitabine (NSC613327), inavolisib (NSC800729), ipatasertib (NSC767898), KB-0742 (NSC834161), MRTX-1133 (NSC836407), osimertinib (NSC779217), RMC-4630 (NSC839698), RMC-6236 (NSC851965), RMC-6291 (NSC852671), Ro-3306 (NSC812927), sapanisertib (NSC764658), SN-38 (NSC673596), staurosporine (NSC755774), SY5609 (NSC837396), and tovorafenib (DAY101, NSC766906), were obtained from the National Cancer Institute (NCI) Developmental Therapeutics Program Chemical Repository. The FDA-approved anticancer drug set is available from the NCI Developmental Therapeutics Program. […] The stock solutions were prepared in dimethyl sulfoxide (DMSO, Sigma-Aldrich, St. Louis, MO, cat. D2650) at 800-fold the tested concentration and stored at -70 degrees C prior to their use. All drugs and investigational agents were tested over a range starting from a high concentration at or near the clinical Cmax and decreasing in half-log increments. If the clinical Cmax for an agent had not been determined, the highest concentration tested was 10 microM.
Cell Culture. All cells were maintained in an incubator at 37 degrees C and 5% CO2 with 95% humidity. The PDC lines were cultured according to standard operating procedures established by the NCI PDMR. All PDCs were thawed and cultured in Matrigel-coated flasks prepared with a working solution of 1X Ham's F-12 nutrient mix, without supplementation (Invitrogen, Waltham, MA, cat. 11765054), 100 U/mL penicillin-streptomycin (Invitrogen, cat. 15140122), and 2.5% Matrigel (Corning Inc., Corning, NY, cat. 354248) for the first three passages. The 362531-283-R-J2-PDC and 782815-120-R-J1-PDC lines were cultured in 6C/Colon 1B media, which includes advanced DMEM/F-12 (Thermo Fisher Scientific, cat. 12634028), 10 mM HEPES (Thermo Fisher Scientific, cat. 15630080), 1X GlutaMAX supplement (Thermo Fisher Scientific, cat. 35050061), 0.1 mg/mL primocin (InvivoGen, San Diego, CA, cat. ant-pm-2), 10% defined fetal bovine serum, heat inactivated (HyClone Laboratories Inc., Logan, UT, cat. SH30070.03HI), 50% L-WRN conditioned media (ATCC, cat. CRL-3276), 1.25 mM N-Acetyl-L-cysteine (Sigma-Aldrich, cat. A9165), 10 mM nicotinamide (Sigma-Aldrich, cat. N0636), 1X B-27 supplement (Thermo Fisher Scientific, cat. 17504044), 1X N-2 supplement (Thermo Fisher Scientific, cat. 17502048), 50 ng/mL human EGF (Thermo Fisher Scientific, cat. PHG0311), and 10 microM Y-27632 dihydrochloride (Tocris Bioscience, cat. 1254). The K12877-001-R-J1-PDC line was cultured in 6I media, which includes all 6C/Colon 1B media plus 10 ng/mL human FGF-10 (PeproTech, cat. 100-26), 1 ng/mL human FGF-2 (PeproTech, cat. 100-18B), 1 µM prostaglandin E2 (Tocris Bioscience, cat. 2296), […] hydrocortisone (Sigma-Aldrich, cat. H4001), and […] bovine insulin (Sigma-Aldrich, cat. I6634). The K86415-001-R-J1-PDC line was cultured in 6D media, which includes all 6C/Colon 1B media components minus the L-WRN conditioned media. The 485176-168-R4-J1-PDC was cultured in PANC media, which includes all 6C/Colon 1B media plus 100 ng/mL human FGF-10 (PeproTech, cat. 100-26), 500 nM SB-431542 (Selleckchem, cat. S1067), and 10 nM gastrin (Tocris Bioscience, cat. 3006). […]

[1] = curve of first compound, second compound 0.0316 µM
[2] = curve of first compound, second compound 0.1 µM
[3] = curve of first compound, second compound 0.316 µM
[4] = curve of first compound, second compound 1 µM
[5] = curve of first compound, second compound 3.16 µM
[6] = curve of first compound, second compound 10 µM
[7] = second compound 0.0316 µM, first compound 0.00316 µM
[8] = second compound 0.0316 µM, first compound 0.01 µM
[9] = second compound 0.0316 µM, first compound 0.0316 µM
[10] = second compound 0.0316 µM, first compound 0.1 µM
[11] = second compound 0.0316 µM, first compound 0.316 µM
[12] = second compound 0.0316 µM, first compound 1 µM
[13] = second compound 0.1 µM, first compound 0.00316 µM
[14] = second compound 0.1 µM, first compound 0.01 µM
[15] = second compound 0.1 µM, first compound 0.0316 µM
[16] = second compound 0.1 µM, first compound 0.1 µM
[17] = second compound 0.1 µM, first compound 0.316 µM
[18] = second compound 0.1 µM, first compound 1 µM
[19] = second compound 0.316 µM, first compound 0.00316 µM
[20] = second compound 0.316 µM, first compound 0.01 µM
[21] = second compound 0.316 µM, first compound 0.0316 µM
[22] = second compound 0.316 µM, first compound 0.1 µM
[23] = second compound 0.316 µM, first compound 0.316 µM
[24] = second compound 0.316 µM, first compound 1 µM
[25] = second compound 1 µM, first compound 0.00316 µM
[26] = second compound 1 µM, first compound 0.01 µM
[27] = second compound 1 µM, first compound 0.0316 µM
[28] = second compound 1 µM, first compound 0.1 µM
[29] = second compound 1 µM, first compound 0.316 µM
[30] = second compound 1 µM, first compound 1 µM
[31] = second compound 3.16 µM, first compound 0.00316 µM
[32] = second compound 3.16 µM, first compound 0.01 µM
[33] = second compound 3.16 µM, first compound 0.0316 µM
[34] = second compound 3.16 µM, first compound 0.1 µM
[35] = second compound 3.16 µM, first compound 0.316 µM
[36] = second compound 3.16 µM, first compound 1 µM
[37] = second compound 10 µM, first compound 0.00316 µM
[38] = second compound 10 µM, first compound 0.01 µM
[39] = second compound 10 µM, first compound 0.0316 µM
[40] = second compound 10 µM, first compound 0.1 µM
[41] = second compound 10 µM, first compound 0.316 µM
[42] = second compound 10 µM, first compound 1 µM
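Further: spheroids exposed to compound for seven days before readout.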
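Wherever viability, T/C is given: 100% = DMSO vehicle control wells.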

CC(C)NCC(C(=O)N1CCN(c2ncnc3c2C(C)CC3O)CC1)c1ccc(Cl)cc1 (stereo not drawn)
> 10000 nM: IC50 (curve of compound)
inactive: viability, T/C (compound 0.1 µM) 101% [middle of 4 runs] | viability, T/C (compound 0.316 µM) 104% [middle of 4 runs] | viability, T/C (compound 1 µM) 93.2% [middle of 4 runs] | viability, T/C (compound 3.16 µM) 78.1% [middle of 4 runs] | viability, T/C (compound 10 µM) 58.9% [middle of 4 runs]

C[C@@H](NC(=O)c1ncnc(N)c1Cl)c1ncc(C(=O)Nc2cc(C(F)(F)F)c(Cl)cn2)s1
inactive: viability, T/C (compound 0.1 µM) 122% [middle of 4 runs] | viability, T/C (compound 1 µM) 81.2% [middle of 4 runs] | viability, T/C (compound 10 µM) 36.8% [middle of 4 runs]

C=CC(=O)Nc1cc(Nc2nccc(-c3cn(C)c4ccccc34)n2)c(OC)cc1N(C)CCN(C)C + C#Cc1c(F)ccc2cc(O)cc(-c3ncc4c(N5CC6CCC(C5)N6)nc(OCC56CCCN5CC(F)C6)nc4c3F)c12
inactive: viability, T/C [7] 103% | viability, T/C [8] 92.3% | viability, T/C [9] 103% | viability, T/C [10] 100% | viability, T/C [11] 85.4% | viability, T/C [12] 65.7% | viability, T/C [13] 108% | viability, T/C [14] 105% | viability, T/C [15] 107% | viability, T/C [16] 98.6% | viability, T/C [17] 94.7% | viability, T/C [18] 62.1% | viability, T/C [19] 113% | viability, T/C [20] 101% | viability, T/C [21] 111% | viability, T/C [22] 96.2% | viability, T/C [23] 85.8% | viability, T/C [24] 49.9% | viability, T/C [25] 109% | viability, T/C [26] 95.8% | viability, T/C [27] 109% | viability, T/C [28] 97.6% | viability, T/C [29] 93.6% | viability, T/C [30] 54.5% | viability, T/C [31] 109% | viability, T/C [32] 105% | viability, T/C [33] 102% | viability, T/C [34] 105% | viability, T/C [35] 87.6% | viability, T/C [36] 39% | viability, T/C [37] 65.7% | viability, T/C [38] 48.1% | viability, T/C [39] 45.1% | viability, T/C [40] 45.5% | viability, T/C [41] 19.9%
> 1000 nM: IC50 [1] | IC50 [2] | IC50 [3] | IC50 [4]
active: viability, T/C [42] 0.87%
778 nM: IC50 [5]
24 nM: IC50 [6]

O=C(c1ccc(F)c(F)c1Nc1ccc(I)cc1F)N1CC(O)([C@@H]2CCCCN2)C1 + C#Cc1c(F)ccc2cc(O)cc(-c3ncc4c(N5CC6CCC(C5)N6)nc(OCC56CCCN5CC(F)C6)nc4c3F)c12
< 3.16 nM: IC50 [2] | IC50 [3] | IC50 [6]
3.56 nM: IC50 [1]
inactive: viability, T/C [7] 52.6% | viability, T/C [8] 35.3% | viability, T/C [9] 26.1% | viability, T/C [10] 26.5% | viability, T/C [11] 17.6% | viability, T/C [12] 14.2% | viability, T/C [13] 44% | viability, T/C [14] 36.1% | viability, T/C [15] 27.1% | viability, T/C [16] 20.7% | viability, T/C [17] 18.8% | viability, T/C [18] 15.3% | viability, T/C [19] 50% | viability, T/C [20] 37.8% | viability, T/C [21] 29.6% | viability, T/C [22] 24.8% | viability, T/C [23] 16.7% | viability, T/C [24] 14.5% | viability, T/C [25] 53.5% | viability, T/C [26] 30% | viability, T/C [27] 24.5% | viability, T/C [28] 20.6% | viability, T/C [29] 17.6% | viability, T/C [30] 15.3% | viability, T/C [31] 59.7% | viability, T/C [32] 36.2% | viability, T/C [33] 26.7% | viability, T/C [34] 21.4% | viability, T/C [35] 19.3% | viability, T/C [36] 12.5% | viability, T/C [37] 17.5% | viability, T/C [38] 14.3% | viability, T/C [39] 12.5% | viability, T/C [40] 9.58%
active: viability, T/C [41] 9.91% | viability, T/C [42] 5.99%
5.18 nM: IC50 [5]
3.69 nM: IC50 [4]
